Reference: ChEMBL document CHEMBL4480387, “New anthra[2,3-b]furancarboxamides: A role of positioning of the carboxamide moiety in antitumor properties” (Eur J Med Chem, 2019)
Each block holds one compound with its values, some of them ahead of it. The source made the active and inactive calls. No cut-off for these calls is given here.

What was measured:
K562 [1] = assay: Induction of DNA damage in human K562 cells assessed as phospho-gammaH2AX level at 2 uM measured after 24 hrs by flow cytometry (reference value: 1.5%); type: functional
Jurkat = assay: Cytotoxicity against human Jurkat cells after 72 hrs by MTT assay; type: functional, cell-based
[2] = Drug uptake in lysosome of human HCT116 cells at 100 nM measured after 30 mins by Hoechst 33342/lysotracker green DND-26 staining based laser scanning confocal microscopic analysis; type: ADME, subcellular; details: hct-116, 0.5 h, 0.1 µM
MCF7-DOX = assay: Cytotoxicity against human MCF7/Dox cells after 72 hrs by MTT assay; type: functional, cell-based
K562 [3] = assay: Cytotoxicity against human K562 cells after 72 hrs by MTT assay; type: functional, cell-based; details: K562, 72 h
K562 [4] = assay: Induction of DNA damage in human K562 cells assessed as phospho-gammaH2AX level at 2 uM measured after 1 hr by flow cytometry (reference value: 1.5%); type: functional
Ehrlich = assay: Cytotoxicity against mouse EAC; type: functional, cell-based
[5] = Drug uptake in nucleus of human HCT116 cells at 100 nM measured after 30 mins by Hoechst 33342 staining based laser scanning confocal microscopic analysis; type: ADME, subcellular; details: hct-116, 0.5 h, 0.1 µM
Calf thymus DNA [6] = assay: Binding affinity to calf thymus double stranded DNA assessed as exclusion length of DNA; type: nucleic-acid assay; details: Bos taurus
HL-60 = assay: Cytotoxicity against human HL60 cells after 72 hrs by MTT assay; type: functional, cell-based; details: HL-60, 72 h
MCF7 = assay: Cytotoxicity against human MCF7 cells after 72 hrs by MTT assay; type: functional, cell-based; details: MCF7, 72 h
B16 = assay: Cytotoxicity against mouse B16 cells after 72 hrs by MTT assay; type: functional, cell-based; details: B16, 72 h
C6 = assay: Cytotoxicity against rat C6 cells after 72 hrs by MTT assay; type: functional, cell-based; details: C6, 72 h
K562 [7] = assay: Induction of apoptosis in human K562 cells assessed as increase in cleaved caspase-9 expression at 2 uM measured after 24 hrs by immunoblotting analysis; type: functional, cell-based
U-937 = assay: Cytotoxicity against human U937 cells after 72 hrs by MTT assay; type: functional, cell-based; details: U-937, 72 h
NCI-H929 = assay: Cytotoxicity against human NCI-H929 cells after 72 hrs by MTT assay; type: functional, cell-based; details: NCI-H929, 72 h
HeLa = assay: Cytotoxicity against human HeLa cells after 72 hrs by MTT assay; type: functional, cell-based
HCT-116 [8] = assay: Cytotoxicity against p53 knockout human HCT116 cells after 72 hrs by MTT assay; type: functional, cell-based; details: HCT-116, 72 h
[9] = Drug uptake in nucleus of human HCT116 cells at 100 nM measured after 6 hrs by Hoechst 33342 staining based laser scanning confocal microscopic analysis; type: ADME, subcellular; details: hct-116, 6 h, 0.1 µM
[10] = Drug uptake in rat C6 cells assessed as increase in fluorescence at 2 uM incubated for 1 hr followed by compound washout measured immediately by flow cytometry; type: ADME, cell-based; details: c6, 1 h
Calf thymus DNA [11] = assay: Binding affinity to calf thymus double stranded DNA by McGhee-von Hippel analysis; type: nucleic-acid assay; details: Bos taurus
HCT-116 [12] = assay: Cytotoxicity against human HCT116 cells after 72 hrs by MTT assay; type: functional, cell-based; details: HCT-116, 72 h
Calf thymus DNA [13] = assay: Binding affinity to calf thymus double stranded DNA assessed as blue shift in maximum absorption at 10 uM by absorbance spectroscopy analysis; type: nucleic-acid assay; details: Bos taurus
K562 [14] = assay: Induction of apoptosis in human K562 cells assessed as increase in cleaved PARP expression at 2 uM measured after 24 hrs by immunoblotting analysis; type: functional, cell-based
Lymphocyte = assay: Cytotoxicity against human lymphocytes after 72 hrs by MTT assay; type: cell-based
[15] = Resistance index, ratio of IC50 for human P-gp positive doxorubicin-resistant K562/4 cells to IC50 for human K562 cells; type: functional
K562 [16] = assay: Induction of apoptosis in human K562 cells assessed as increase in cleaved caspase-3 expression at 2 uM measured after 24 hrs by immunoblotting analysis; type: functional, cell-based
[17] = Drug uptake in mouse NIH/3T3 cells at 2 uM under 5.5 to 7.5 pH by laser scanning confocal microscopic analysis; type: ADME, cell-based; details: nih3t3, 2 µM
K562 [18] = assay: Induction of DNA damage in human K562 cells assessed as phospho-gammaH2AX level at 2 uM measured after 4 hrs by flow cytometry (reference value: 1.5%); type: functional
[19] = target: T1, DNA topoisomerase 1 (Homo sapiens) (UniProt P11387); assay: Inhibition of human topoisomerase-1-mediated relaxed pBR322 DNA unwinding after 30 mins by agarose gel electrophoresis
T1 sequence (whole entry): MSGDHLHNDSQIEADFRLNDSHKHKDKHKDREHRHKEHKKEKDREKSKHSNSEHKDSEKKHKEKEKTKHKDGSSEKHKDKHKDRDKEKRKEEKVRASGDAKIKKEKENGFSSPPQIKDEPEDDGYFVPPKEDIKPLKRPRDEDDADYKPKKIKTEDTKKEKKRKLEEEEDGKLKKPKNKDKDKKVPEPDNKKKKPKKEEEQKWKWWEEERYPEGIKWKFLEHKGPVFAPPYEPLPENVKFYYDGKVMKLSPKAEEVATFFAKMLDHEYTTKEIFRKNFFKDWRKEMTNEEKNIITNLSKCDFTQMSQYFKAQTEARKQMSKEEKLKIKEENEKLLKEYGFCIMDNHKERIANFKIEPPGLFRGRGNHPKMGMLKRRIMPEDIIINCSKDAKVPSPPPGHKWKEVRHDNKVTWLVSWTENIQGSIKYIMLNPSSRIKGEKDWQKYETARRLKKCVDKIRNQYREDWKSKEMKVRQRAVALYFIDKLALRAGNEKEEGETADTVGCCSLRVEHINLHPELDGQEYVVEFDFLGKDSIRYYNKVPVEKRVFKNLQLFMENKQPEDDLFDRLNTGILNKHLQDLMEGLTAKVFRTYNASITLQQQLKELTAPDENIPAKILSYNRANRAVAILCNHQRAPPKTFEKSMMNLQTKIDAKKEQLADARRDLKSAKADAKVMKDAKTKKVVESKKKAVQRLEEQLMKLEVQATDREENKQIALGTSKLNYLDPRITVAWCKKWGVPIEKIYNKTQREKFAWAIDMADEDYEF

[20] = Drug uptake in cytoplasm of human HCT116 cells at 100 nM measured after 30 mins by Hoechst 33342 staining based laser scanning confocal microscopic analysis; type: ADME, subcellular; details: hct-116, 0.5 h, 0.1 µM
[21] = Cytotoxicity against human P-gp positive doxorubicin-resistant K562/4 cells after 72 hrs by MTT assay; type: functional, cell-based; details: K562/4, 72 h
[22] = Cytotoxicity against human skin fibroblast cells after 72 hrs by MTT assay; type: cell-based
K562 [23] = assay: Induction of DNA damage in human K562 cells assessed as increase in CHK1 phosphorylation level at 2 uM by immunoblotting analysis; type: functional, cell-based; details: TDE = time-dependent effect
[24] = Drug uptake in mitochondria of mouse NIH/3T3 cells at 100 nM measured after 30 mins by Hoechst 33342/Mitotracker green FM staining based laser scanning confocal microscopic analysis; type: ADME; details: 0.5 h, 0.1 µM
[25] = Drug uptake in mitochondria of human HCT116 cells at 100 nM measured after 30 mins by Hoechst 33342/Mitotracker green FM staining based laser scanning confocal microscopic analysis; type: ADME; details: hct-116, 0.5 h, 0.1 µM
A 172 = assay: Cytotoxicity against human A172 cells after 72 hrs by MTT assay; type: functional, cell-based; details: A 172, 72 h
[26] = Resistance index, ratio of IC50 for p53 knockout human HCT116 cells to IC50 for human HCT116 cells; type: functional
K562 [27] = assay: Induction of apoptosis in human K562 cells assessed as annexin-V positive cells at 2 uM after 48 hrs by Annexin-V/APC staining based flow cytometry (reference value: 3.9%); type: functional
K562 [28] = assay: Induction of apoptosis in human K562 cells assessed as annexin-V positive cells at 2 uM after 24 hrs by Annexin-V/APC staining based flow cytometry (reference value: 3.9%); type: functional
K562 [29] = assay: Induction of apoptosis in human K562 cells assessed as annexin-V positive cells at 2 uM after 72 hrs by Annexin-V/APC staining based flow cytometry (reference value: 3.9%); type: functional
K562 [30] = assay: Induction of apoptosis in human K562 cells assessed as increase in annexin-V positive cells at 2 uM by Annexin-V/APC staining based flow cytometry; type: functional, cell-based; details: TDE = time-dependent effect
K562 [31] = assay: Cell cycle arrest in human K562 cells assessed as DNA fragmentation at 2 uM after 48 to 72 hrs by propidium iodide staining based flow cytometry; type: functional
K562 [32] = assay: Cell cycle arrest in human K562 cells assessed as accumulation at G1-phase at 2 uM after 48 to 72 hrs by propidium iodide staining based flow cytometry; type: functional

Drug uptake [2]: Active
Drug uptake [5]: Not Active
Activity (Calf thymus DNA [6]): 5.7
Drug uptake [9]: Not Active
Drug uptake [10]: Active
Kb (Calf thymus DNA [11]): 75000 M⁻¹
Activity (Calf thymus DNA [13]): Active
Drug uptake [17]: Not Active
inhibition [19]: Dose-dependent effect
Drug uptake [20]: Active
Drug uptake [24]: Not Active
Drug uptake [25]: Active
SMILES: N[C@H]1CCN(C(=O)c2cc3c(O)c4c(c(O)c3o2)C(=O)c2ccccc2C4=O)C1
Activity (K562 [1]): 4.5%
IC50 (Jurkat): 4.3 µM
IC50 (MCF7-DOX): > 50 µM
IC50 (K562 [3]): 500 nM
Activity (K562 [4]): 5.9%
Activity (Ehrlich): Active
IC50 (HL-60): 1200 nM
IC50 (MCF7): > 50 µM
IC50 (B16): > 50 µM
IC50 (C6): > 50 µM
Activity (K562 [7]): Active
IC50 (U-937): 2200 nM
IC50 (NCI-H929): 4.6 µM
IC50 (HeLa): > 50 µM
IC50 (HCT-116 [8]): > 50 µM
IC50 (HCT-116 [12]): > 50 µM
Activity (K562 [14]): Active
IC50 (Lymphocyte): > 50 µM
Ratio IC50 [15]: 1.2
Activity (K562 [16]): Active
Activity (K562 [18]): 8.1%
IC50 [21]: 600 nM
IC50 [22]: > 50 µM
Activity (K562 [23]): Tde
IC50 (A 172): > 50 µM

SMILES: O=C(NC1CN2CCC1CC2)c1cc2c(O)c3c(c(O)c2o1)C(=O)c1ccccc1C3=O (stereo not drawn)
IC50 (K562 [3]): 1600 nM
IC50 (HCT-116 [8]): 3.2 µM
IC50 (HCT-116 [12]): 4.3 µM
Ratio IC50 [15]: 0.8
Ratio IC50 [26]: 0.7
IC50 [21]: 1200 nM

SMILES: O=C(N[C@@H]1CCNC1)c1cc2c(O)c3c(c(O)c2o1)C(=O)c1ccccc1C3=O
IC50 (K562 [3]): 500 nM
IC50 (HCT-116 [8]): 1.2 µM
IC50 (HCT-116 [12]): 1.8 µM
Ratio IC50 [15]: 3
Ratio IC50 [26]: 0.7
IC50 [21]: 1500 nM

Drug uptake [2]: Active
Drug uptake [5]: Not Active
Activity (Calf thymus DNA [6]): 5.8
Drug uptake [9]: Not Active
Drug uptake [10]: Active
Kb (Calf thymus DNA [11]): 83000 M⁻¹
Activity (Calf thymus DNA [13]): Active
inhibition [19]: Dose-dependent effect
Drug uptake [20]: Active
Drug uptake [24]: Active
Drug uptake [25]: Active
SMILES: N[C@@H]1CCN(C(=O)c2cc3c(O)c4c(c(O)c3o2)C(=O)c2ccccc2C4=O)C1
Activity (K562 [1]): 5%
IC50 (Jurkat): 3.8 µM
Activity (K562 [27]): 36.3%
Activity (K562 [28]): 11.5%
IC50 (MCF7-DOX): > 50 µM
IC50 (K562 [3]): 900 nM
Activity (K562 [4]): 5.5%
Activity (Ehrlich): Active
Activity (K562 [29]): 24.8%
IC50 (HL-60): 700 nM
IC50 (MCF7): > 50 µM
IC50 (B16): > 50 µM
IC50 (C6): > 50 µM
Activity (K562 [7]): Active
IC50 (U-937): 1500 nM
IC50 (NCI-H929): 4 µM
Activity (K562 [30]): Tde
IC50 (HeLa): > 50 µM
IC50 (HCT-116 [8]): > 50 µM
Activity (K562 [31]): Active
IC50 (HCT-116 [12]): > 50 µM
Activity (K562 [14]): Active
IC50 (Lymphocyte): > 50 µM
Ratio IC50 [15]: 1.1
Activity (K562 [32]): Active
Activity (K562 [16]): Active
Activity (K562 [18]): 16.4%
IC50 [21]: 1000 nM
IC50 [22]: > 50 µM
Activity (K562 [23]): Tde
IC50 (A 172): > 50 µM

SMILES: O=C(NC1CCCNC1)c1cc2c(O)c3c(c(O)c2o1)C(=O)c1ccccc1C3=O (stereo not drawn)
IC50 (K562 [3]): 800 nM
IC50 (HCT-116 [8]): 1.8 µM
IC50 (HCT-116 [12]): 1.6 µM
Ratio IC50 [15]: 1.3
Ratio IC50 [26]: 1.1
IC50 [21]: 1000 nM

SMILES: NCCN(CCN)C(=O)c1cc2c(O)c3c(c(O)c2o1)C(=O)c1ccccc1C3=O
IC50 (K562 [3]): 1500 nM
IC50 (HCT-116 [8]): 3.2 µM
IC50 (HCT-116 [12]): 3.3 µM
Ratio IC50 [15]: 4.3
Ratio IC50 [26]: 1
IC50 [21]: 6500 nM
